ChEMBL document CHEMBL1201862, “PubChem BioAssay data set” (2004)
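Five concentrations, 48 hours, 96-well plates. Here, GI50 denotes the concentration required for 50% inhibition of growth.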 Active and inactive are the calls of the source. No stated cut-off is given here; in the data, active = GI50 up to about 1.1 µM and inactive = higher. Where a SMILES comes first, the peptide text is derived from it. Peptide text beside a SMILES is read from it. * marks the point of attachment. Boc = CC(C)(C)OC(=O)*

Columns and labels:
Test in all cases: growth of human tumour cells (NCI), 48 h
[1] = test system: LXFL 529
[2] = test system: M19-MEL
[3] = test system: DLD-1
[4] = test system: KM-20L2
[5] = test system: HOP-18
[6] = test system: SNB-78
[7] = test system: BT-549
[8] = test system: XF498
[9] = test system: RXF 631

COc1cc(C=C2C(=O)OC(C)(C)OC2=O)cc(OC)c1OC
GI50 [1]: > 100 µM (inactive) | GI50 [2]: > 100 µM (inactive) | GI50 [3]: > 100 µM (inactive) | GI50 [4]: > 100 µM (inactive) | GI50 [5]: > 100 µM (inactive) | GI50 [6]: > 100 µM (inactive)

CCOC(=O)c1c(N=C(S)Nc2ccccc2)sc2c1CCN(C)C2
GI50 [7]: > 100 µM (inactive)

COC(=O)C1=C(C(=O)OC)C(C(=O)OC)C(C(=O)OC)C(C(=O)OC)(C(=O)OC)C(C(=O)OC)=C1C(=O)OC (stereo unspecified)
GI50 [1]: 9.73 µM (inactive) | GI50 [2]: 12.8 µM (inactive) | GI50 [3]: 1.81 µM (inactive) | GI50 [7]: 18.2 µM (inactive) | GI50 [4]: 17.7 µM (inactive) | GI50 [8]: 12.2 µM (inactive) | GI50 [5]: 17.1 µM (inactive) | GI50 [6]: 18.4 µM (inactive)

OCCCC(O)(c1ccccc1)c1ccccc1
GI50 [7]: > 100 µM (inactive)

C=C1[C@@H]2CCC(C)(C)[C@H]1CCC(=O)[C@@H]2C(=O)OC
GI50 [9]: > 100 µM (inactive) | GI50 [1]: > 100 µM (inactive) | GI50 [2]: > 100 µM (inactive) | GI50 [4]: > 100 µM (inactive) | GI50 [8]: > 100 µM (inactive)

CC(C)=CC1(C)/C(=N\O)C(C)(CC(C)C)C(=O)N1O (stereo unspecified)
GI50 [9]: > 100 µM (inactive) | GI50 [1]: > 100 µM (inactive) | GI50 [2]: > 100 µM (inactive) | GI50 [3]: > 100 µM (inactive) | GI50 [4]: > 100 µM (inactive) | GI50 [8]: 11.3 µM (inactive) | GI50 [6]: > 100 µM (inactive)

O=C(c1nc2ccc(Cl)cc2[nH]c1=O)C(O)c1cccc([N+](=O)[O-])c1 (stereo unspecified)
GI50 [1]: > 100 µM (inactive) | GI50 [2]: > 100 µM (inactive) | GI50 [3]: > 100 µM (inactive) | GI50 [4]: > 100 µM (inactive) | GI50 [8]: 9.1 µM (inactive) | GI50 [5]: > 100 µM (inactive) | GI50 [6]: > 100 µM (inactive)

COC(=O)C(Cl)=C1CC1
GI50 [1]: 16 µM (inactive) | GI50 [2]: 39.7 µM (inactive) | GI50 [3]: 23.6 µM (inactive) | GI50 [4]: > 100 µM (inactive) | GI50 [8]: 29.4 µM (inactive) | GI50 [6]: 49.1 µM (inactive)

ClC(Cl)=C(Cl)C1(Cl)CC1COCc1ccccc1 (stereo unspecified)
GI50 [1]: 51.6 µM (inactive) | GI50 [2]: 31.4 µM (inactive) | GI50 [3]: 38 µM (inactive) | GI50 [4]: 33.3 µM (inactive) | GI50 [8]: 23.6 µM (inactive) | GI50 [6]: 4.83 µM (inactive)

CCC(=O)CC(=O)CCC(=O)Nc1cc(C)ccc1C
GI50 [1]: > 100 µM (inactive) | GI50 [3]: > 100 µM (inactive) | GI50 [4]: > 100 µM (inactive) | GI50 [8]: > 100 µM (inactive) | GI50 [5]: > 100 µM (inactive) | GI50 [6]: > 100 µM (inactive)

CC1C(c2ccccc2)N(C)C(c2ccccc2)C(C)C1(O)c1ccccc1 (stereo unspecified)
GI50 [1]: > 100 µM (inactive) | GI50 [2]: 47.4 µM (inactive) | GI50 [3]: > 100 µM (inactive) | GI50 [4]: > 100 µM (inactive) | GI50 [6]: > 100 µM (inactive)

c1ccc2c(c1)CCc1cc3cc4c(nc3nc1-2)-c1ccccc1CC4
GI50 [1]: > 100 µM (inactive) | GI50 [2]: > 100 µM (inactive) | GI50 [3]: > 100 µM (inactive) | GI50 [6]: > 100 µM (inactive)

COc1cc2c(cc1OCc1ccccc1)CNCC2
GI50 [9]: > 100 µM (inactive) | GI50 [1]: > 100 µM (inactive) | GI50 [2]: > 100 µM (inactive) | GI50 [3]: > 100 µM (inactive) | GI50 [4]: > 100 µM (inactive) | GI50 [8]: > 100 µM (inactive) | GI50 [5]: > 100 µM (inactive) | GI50 [6]: > 100 µM (inactive)

Cc1ccc(Cl)c2c(=O)cc(-c3ccccc3)[nH]c12
GI50 [1]: 41.7 µM (inactive) | GI50 [2]: 68.7 µM (inactive) | GI50 [3]: > 100 µM (inactive) | GI50 [5]: 11.5 µM (inactive)

O=C(NC1C=CCC2C(=O)N(c3ccccc3)C(=O)C12)OCc1ccccc1 (stereo unspecified)
GI50 [1]: > 100 µM (inactive) | GI50 [2]: > 100 µM (inactive) | GI50 [3]: > 100 µM (inactive) | GI50 [4]: > 100 µM (inactive) | GI50 [8]: > 100 µM (inactive) | GI50 [5]: > 100 µM (inactive) | GI50 [6]: > 100 µM (inactive)

COc1ccc(C(=O)/C=C/c2ccc(OCC(=O)N3CCN(c4ccccc4)CC3)cc2)cc1
GI50 [1]: > 65.8 µM (inactive) | GI50 [2]: > 100 µM (inactive) | GI50 [3]: > 100 µM (inactive) | GI50 [7]: 24.9 µM (inactive) | GI50 [4]: > 100 µM (inactive) | GI50 [8]: 35.9 µM (inactive) | GI50 [5]: > 100 µM (inactive) | GI50 [6]: 15.1 µM (inactive)

NC(=S)N1N=C2CCCCCC[C@@H]2[C@H]1c1ccccc1
GI50 [1]: 40 µM (inactive) | GI50 [2]: 38.5 µM (inactive) | GI50 [3]: 56.2 µM (inactive) | GI50 [4]: 62.1 µM (inactive) | GI50 [8]: 23.9 µM (inactive) | GI50 [6]: > 100 µM (inactive)

O=C1Nc2c(ccc(Cl)c2I)C1=O
GI50 [1]: 14 µM (inactive) | GI50 [2]: 11.4 µM (inactive) | GI50 [3]: 18.5 µM (inactive) | GI50 [4]: 30 µM (inactive) | GI50 [8]: 16 µM (inactive)

Cc1cc(Cl)ccc1NC(=O)C1C(=O)N(c2ccc(Cl)cc2C)C(=O)/C1=N\NC(N)=S (stereo unspecified)
GI50 [9]: 45.6 µM (inactive) | GI50 [1]: 28.7 µM (inactive) | GI50 [2]: 37.4 µM (inactive) | GI50 [3]: 35.3 µM (inactive) | GI50 [4]: 20.7 µM (inactive) | GI50 [5]: 16.8 µM (inactive) | GI50 [6]: 44 µM (inactive)

O=C1C(Cl)=C(NCCOCCO)C(=O)c2c(O)ccc(O)c21
GI50 [1]: 7.62 µM (inactive) | GI50 [2]: 1.81 µM (inactive) | GI50 [3]: 2.13 µM (inactive) | GI50 [5]: 15.6 µM (inactive) | GI50 [6]: 12.7 µM (inactive)

O=C(Nc1cc(Cl)ccc1Cl)c1cc2cccc(Cl)c2oc1=O
GI50 [2]: > 100 µM (inactive) | GI50 [3]: > 100 µM (inactive) | GI50 [4]: > 100 µM (inactive) | GI50 [8]: 24 µM (inactive) | GI50 [5]: 40.2 µM (inactive)

CC(=O)NC1=C(N)C(=O)c2ccccc2C1=O
GI50 [9]: > 100 µM (inactive) | GI50 [1]: 45 µM (inactive) | GI50 [2]: 19.4 µM (inactive) | GI50 [3]: 31.4 µM (inactive) | GI50 [4]: 87.5 µM (inactive) | GI50 [8]: > 100 µM (inactive) | GI50 [5]: > 100 µM (inactive) | GI50 [6]: > 100 µM (inactive)

CC1=C(C(=O)Nc2ccccc2C)C(c2ccco2)C(C(=O)Nc2ccccc2C)=C(C)N1C
GI50 [9]: 81.5 µM (inactive) | GI50 [1]: > 100 µM (inactive) | GI50 [2]: > 100 µM (inactive) | GI50 [3]: > 100 µM (inactive) | GI50 [8]: > 100 µM (inactive) | GI50 [5]: > 100 µM (inactive) | GI50 [6]: > 100 µM (inactive)

O=C(N/C(=C\c1cc(Cl)ccc1Cl)c1nc2cc(Cl)ccc2[nH]1)c1ccccc1
GI50 [1]: 13.6 µM (inactive) | GI50 [2]: 16 µM (inactive) | GI50 [3]: 12.8 µM (inactive) | GI50 [4]: 18.2 µM (inactive) | GI50 [6]: 21.7 µM (inactive)

COc1ccc(NC(=O)CC(=O)N2N=C(N(CCC#N)c3ccccc3Cl)CC2c2ccccc2)cc1 (stereo unspecified)
GI50 [9]: > 100 µM (inactive) | GI50 [1]: > 100 µM (inactive) | GI50 [2]: > 100 µM (inactive) | GI50 [3]: > 100 µM (inactive) | GI50 [4]: > 100 µM (inactive) | GI50 [8]: > 100 µM (inactive) | GI50 [5]: > 100 µM (inactive) | GI50 [6]: > 100 µM (inactive)

Cn1cnc([N+](=O)[O-])c1Sc1nnc(C(F)(F)F)n1C
GI50 [9]: 17.6 µM (inactive) | GI50 [1]: 14.2 µM (inactive) | GI50 [2]: 18.9 µM (inactive) | GI50 [3]: 16.4 µM (inactive) | GI50 [5]: 19.5 µM (inactive) | GI50 [6]: 26.2 µM (inactive)

O=C(O)C1=Cc2cccc3cccc(c23)C1=O
GI50 [1]: > 100 µM (inactive) | GI50 [2]: > 100 µM (inactive) | GI50 [3]: > 100 µM (inactive) | GI50 [4]: > 100 µM (inactive) | GI50 [5]: > 100 µM (inactive)

C/C(CC(=O)Nc1ccc(C)cc1C)=N/N=C(N)N
GI50 [9]: > 100 µM (inactive) | GI50 [1]: > 100 µM (inactive) | GI50 [2]: > 100 µM (inactive) | GI50 [3]: > 100 µM (inactive) | GI50 [4]: > 100 µM (inactive) | GI50 [8]: > 100 µM (inactive) | GI50 [6]: > 100 µM (inactive)

O=C(c1cccs1)N(C(=S)N1CCN(c2ccccn2)CC1)c1ccccc1
GI50 [1]: 39.4 µM (inactive) | GI50 [2]: 81.1 µM (inactive) | GI50 [3]: > 100 µM (inactive) | GI50 [4]: > 100 µM (inactive) | GI50 [8]: 37.5 µM (inactive) | GI50 [5]: > 100 µM (inactive) | GI50 [6]: > 100 µM (inactive)

CC1=NN(C(=O)c2ccccc2O)C(=O)/C1=C/c1cccc(O)c1
GI50 [1]: 0.276 µM (active) | GI50 [2]: 0.596 µM (active) | GI50 [3]: 0.167 µM (active) | GI50 [7]: 0.392 µM (active) | GI50 [4]: 25.5 µM (inactive) | GI50 [8]: 0.783 µM (active) | GI50 [6]: 0.276 µM (active)

CC(NC(=O)OC(C)(C)C)C(=O)NC(Cc1ccccc1)C(=O)NCC(=O)O (stereo not drawn) (Boc-Ala-Phe-Gly-OH; configuration not given here)
GI50 [7]: > 100 µM (inactive)

CCC(C)C1NC(=O)C2CCCN2C(=O)CNC(=O)C(C)NC(=O)C(Cc2ccccc2)NC(=O)C(C(C)C)NC1=O (stereo unspecified) (cyclo(GPIVFA); configuration not given here)
GI50 [9]: > 100 µM (inactive) | GI50 [1]: > 100 µM (inactive) | GI50 [2]: > 100 µM (inactive) | GI50 [3]: > 100 µM (inactive) | GI50 [4]: > 100 µM (inactive) | GI50 [5]: > 100 µM (inactive)

C/C(=C\c1csc(C)n1)[C@@H]1C[C@@H]2O[C@]2(C)CCC[C@H](C)[C@H](O)[C@@H](C)C(=O)C(C)(C)[C@@H](O)CC(=O)O1 [PATUPILONE]
GI50 [7]: < 0.0001 µM (active)

Cc1cc2cc3c(C)cc(=O)oc3c(C)c2o1 [TRIOXSALEN]
GI50 [7]: > 100 µM (inactive)
